Here are results for 2 molecules from patent publication US8188129B2, “(−)-enantiomer of the 2-[2-(1-chloro-cyclopropyl)-3-(2-chlorophenyl)-2-hydroxypropyl]-2,4-dihydro-[1,2,4]-triazole-3-thione” (Bayer Aktiengesellschaft, priority 1999, dated 2012).

SMILES strings stand for the structures.

For one experiment, the system named is Podosphaera leucotricha. In words: Podosphaera test (apple)/protective. It counts as in vivo. To be noted: protective spray, application rate 10 g/ha, evaluation 10 days after inoculation.
The next experiment has as its system Pyricularia oryzae. In kind it is in vivo. To be noted: rice, protective spray, application rate 375 g/ha, evaluation 4 days after inoculation.
Another experiment deals with Cochliobolus sativus. The experiment is described as follows: Cochliobolus sativus test (barley)/protective. To be noted: protective spray, evaluation 7 days after inoculation.
The test system of a further experiment is Venturia inaequalis. In words: Venturia test (apple)/curative. To be noted: curative spray, application rate 1 g/ha, evaluation 12 days after inoculation.
In another experiment the test system is Uncinula necator. In words: Uncinula test (vine)/protective. In kind it is in vivo. To be noted: protective spray, application rate 10 g/ha, evaluation 14 days after inoculation.

Description for Cochliobolus sativus: After the spray coating has dried on, the plants are sprayed with a conidia suspension of Cochiliobolus sativus. The plants remain in an incubation cabin at 20° C. and 100% relative atmospheric humidity for 48 hours.
The plants are placed in a greenhouse at a temperature of 20° C. and a relative atmospheric humidity of approximately 80%.
Evaluation is carried out 7 days after the inoculation.
Description for Venturia inaequalis: To test for curative activity, young plants are inoculated with an aqueous conidia suspension of the apple scab pathogen Venturia inaequalis. The plants remain in an incubation cabin at approximately 20° C. and 100% relative atmospheric humidity for 1 day and are then placed in a greenhouse.
The plants are then placed in a greenhouse at approximately 21° C. and a relative atmospheric humidity of approximately 90%.
Evaluation is carried out 12 days after the inoculation.

With `OC(Cc1ccccc1Cl)(Cn1nc[nH]c1=S)C1(Cl)CC1` (racemic) [(Ia), racemic 2-[2-(1-chloro-cyclopropyl)-3-(2-chloro-phenyl)-2-hydroxypropyl]-2,4-dihydro-[1,2,4]-triazole-3-thione], the Efficacy in % in the experiment on Podosphaera leucotricha was 60%; with Pyricularia oryzae it was 30%; in the experiment on Cochliobolus sativus (application rate 125 g/ha), 59%; in the experiment with Cochliobolus sativus (application rate 250 g/ha), 66%; in the experiment with Venturia inaequalis, 79%; in the experiment on Uncinula necator, 47%.

With `OC(Cc1ccccc1Cl)(Cn1nc[nH]c1=S)C1(Cl)CC1` (single isomer, unassigned; (-)) [(I), (−)-enantiomer of 2-[2-(1-chloro-cyclopropyl)-3-(2-chlorophenyl)-2-hydroxypropyl]-2,4-dihydro-[1,2,4]-triazole-3-thione], the Efficacy in % with Podosphaera leucotricha is reported as 78%; with Pyricularia oryzae, 90%; in the experiment with Cochliobolus sativus (application rate 125 g/ha), 75%; in the experiment on Cochliobolus sativus (application rate 250 g/ha), 75%; in the experiment with Venturia inaequalis, 91%; with Uncinula necator, 84%.
